Results from article PMC4734850, “Tyrosinase inhibitory activity of flavonoids from Artocarpus heterophyllous” (Chemistry Central Journal, 2016).
Like-named read-outs stand apart in the source and are kept apart here.

Key:
[1] = molecular target: T1, Tyrosinase (EC 1.14.18.1) from mushroom (Agaricus bisporus, UniProt C7FF04); experiment: Tyrosinase inhibitory assay (L-DOPA oxidation, absorbance at 475 nm); type: biochemical
T1 construct: purchased Sigma Chemical Co. (St. Louis, MO, USA)
Procedure: Tyrosinase (EC 1.14.18.1) from mushroom (3933 U/mL) and L-dihydroxyphenylalanine (L-DOPA) were obtained from Sigma Chemical Co. (St. Louis, MO, USA). […] Other chemicals were of the highest grade available.
All the samples were first dissolved in DMSO and used for the actual experiment at concentrations of […] (or µM for pure compounds). The tyrosinase inhibitory activity assay was performed as previously described by Arung et al.. The assay mixtures consisting of 1900 µL of test solution in 0.1 M phosphate buffer pH 6.8 and 100 µL of enzyme solution (15 U/mL in 0.1 M phosphate buffer pH 6.8) was prepared immediately before use. After preincubation at room temperature for 30 min, the reaction was initiated by the addition of 1000 µL of substrate solution (1.5 mM L-DOPA in 0.1 M phosphate buffer pH 6.8). The assay mixture was incubated at room temperature for 7 min, and the absorbance at 475 nm was measured with a Shimadzu UV-1800 spectrophotometer. […] Tyrosinase inhibitory activity was expressed as the percentage inhibitory of enzyme tyrosinase in the above assay system, calculated as (1 − B/A) × 100, where A and B are the activities of the enzyme without and with test material. IC50 values were calculated from the mean values of data from four determinations.

mushroom tyrosinase = molecular target: T2, mushroom tyrosinase (Agaricus bisporus, UniProt C7FF04); experiment: Inhibition mechanism, Lineweaver–Burk plots; type: biochemical; conditions: 30 °C, pH 6.8
T2 construct: purchased Sigma Chemical Co. (St. Louis, MO, USA)
T2 sequence (C7FF04 1-392 limits assumed): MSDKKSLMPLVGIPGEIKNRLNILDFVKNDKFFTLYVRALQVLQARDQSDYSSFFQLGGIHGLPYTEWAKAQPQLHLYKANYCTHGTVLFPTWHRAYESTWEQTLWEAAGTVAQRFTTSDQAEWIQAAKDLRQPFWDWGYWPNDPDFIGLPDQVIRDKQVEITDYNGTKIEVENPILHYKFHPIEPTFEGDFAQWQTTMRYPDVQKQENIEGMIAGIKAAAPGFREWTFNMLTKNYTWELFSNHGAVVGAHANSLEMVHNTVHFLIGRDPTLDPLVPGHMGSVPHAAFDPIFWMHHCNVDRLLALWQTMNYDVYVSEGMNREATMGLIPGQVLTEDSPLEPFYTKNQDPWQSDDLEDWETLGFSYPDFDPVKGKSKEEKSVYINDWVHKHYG
Procedure: Fig. 3 Lineweaver–Burk plots for type of inhibition of mushroom tyrosinase (10 U/mL) by artocaepin E (1) for the catalysis of L-DOPA (0.2, 0.3, 0.4, 0.5, and 0.6 mM) at 30 °C, pH 6.8. Concentration of these compounds for curves I0.0, I5.0, I7.0, and I10.0 were 0.0, 5.0, 7.0, and 10.0 μM, respectively. The inset represents the plot of these compounds for determining the inhibition constant (Ki). The line is drawn using a linear lest squares fit
The dependence of absorbance (475 nm) on time was measured, and the reaction rate was calculated for all reactions (uninhibited and inhibited). Then, a Lineweaver–Burk plot was constructed, and Km and Vm values were calculated. Each measurement was performed in duplicate.

[2] = mushroom tyrosinase, substrate L-DOPA, 0.1 M phosphate buffer pH 6.8, room temperature, read-out: Tyrosinase inhibitory activity IC50

T1 sequence (C7FF04 1-392 limits assumed): as above

SMILES | IC50 [1, 2] | also measured
O=C1c2c(O)cc(O)cc2O[C@H](c2ccc(O)cc2O)[C@H]1O [Compound 7, dihydromorin] | > 50 µM | 
O=C1CC(c2ccc(O)cc2O)Oc2cc(O)cc(O)c21 (stereo not shown) [Compound 6, steppogenin] | 7.5 ± 0.5 µM | inhibitory activity relative to 4 ([1]; ratio of tyrosinase IC50 values, 6 vs 4): 3.75 fold
O=C1C[C@@H](c2ccc(O)cc2)Oc2cc(O)ccc21 [Compound 5, liquiritigenin] |  | IC50 [1]: 22 ± 2.5 µM
C/C(=C\Cc1c(O)cc2oc(-c3ccc(O)cc3O)cc(=O)c2c1O)COC(=O)/C=C/c1ccc(O)cc1 [Compound 1, artocaepin E] | 6.7 ± 0.8 µM | type of inhibition (mushroom tyrosinase; Lineweaver–Burk plots, L-DOPA substrate): competitive inhibition; Ki (mushroom tyrosinase; mushroom tyrosinase 10 U/mL, L-DOPA 0.2-0.6 mM, read-out: inhibition constant (Ki)): 6.23 µM
O=c1cc(-c2ccc(O)cc2O)oc2cc(O)cc(O)c12 [Compound 3, norartocarpetin] | > 50 µM | 
COc1cc(O)c2c(c1)O[C@H](c1ccc(O)cc1O)CC2=O [Compound 4, artocarpanone] | 2 ± 0.1 µM | 
C/C(=C\Cc1c(O)ccc2c1O[C@H](c1ccc(O)cc1)CC2=O)CO [Compound 2, artocaepin F] | > 50 µM | 
